Test results published in patent US20220257592A1, “METHODS OF TREATING CANCER” (HOFFMANN-LA ROCHE INC., priority 2019, published 2022).
Marks after values point to notes of the source that are not given here.

Legend:
[1] = tested on: cancer having at least one molecular alteration in one or more of ALK, ROS1, TrkA, TrkB and TrkC; conditions: early clinical studies; cited from earlier work
[2] = molecular target: anaplastic lymphoma kinase (ALK) (Homo sapiens, UniProt Q9UM73); conditions: cited from earlier work
[3] = human, in vivo

Chain of anaplastic lymphoma kinase (ALK) (Q9UM73 19-1620): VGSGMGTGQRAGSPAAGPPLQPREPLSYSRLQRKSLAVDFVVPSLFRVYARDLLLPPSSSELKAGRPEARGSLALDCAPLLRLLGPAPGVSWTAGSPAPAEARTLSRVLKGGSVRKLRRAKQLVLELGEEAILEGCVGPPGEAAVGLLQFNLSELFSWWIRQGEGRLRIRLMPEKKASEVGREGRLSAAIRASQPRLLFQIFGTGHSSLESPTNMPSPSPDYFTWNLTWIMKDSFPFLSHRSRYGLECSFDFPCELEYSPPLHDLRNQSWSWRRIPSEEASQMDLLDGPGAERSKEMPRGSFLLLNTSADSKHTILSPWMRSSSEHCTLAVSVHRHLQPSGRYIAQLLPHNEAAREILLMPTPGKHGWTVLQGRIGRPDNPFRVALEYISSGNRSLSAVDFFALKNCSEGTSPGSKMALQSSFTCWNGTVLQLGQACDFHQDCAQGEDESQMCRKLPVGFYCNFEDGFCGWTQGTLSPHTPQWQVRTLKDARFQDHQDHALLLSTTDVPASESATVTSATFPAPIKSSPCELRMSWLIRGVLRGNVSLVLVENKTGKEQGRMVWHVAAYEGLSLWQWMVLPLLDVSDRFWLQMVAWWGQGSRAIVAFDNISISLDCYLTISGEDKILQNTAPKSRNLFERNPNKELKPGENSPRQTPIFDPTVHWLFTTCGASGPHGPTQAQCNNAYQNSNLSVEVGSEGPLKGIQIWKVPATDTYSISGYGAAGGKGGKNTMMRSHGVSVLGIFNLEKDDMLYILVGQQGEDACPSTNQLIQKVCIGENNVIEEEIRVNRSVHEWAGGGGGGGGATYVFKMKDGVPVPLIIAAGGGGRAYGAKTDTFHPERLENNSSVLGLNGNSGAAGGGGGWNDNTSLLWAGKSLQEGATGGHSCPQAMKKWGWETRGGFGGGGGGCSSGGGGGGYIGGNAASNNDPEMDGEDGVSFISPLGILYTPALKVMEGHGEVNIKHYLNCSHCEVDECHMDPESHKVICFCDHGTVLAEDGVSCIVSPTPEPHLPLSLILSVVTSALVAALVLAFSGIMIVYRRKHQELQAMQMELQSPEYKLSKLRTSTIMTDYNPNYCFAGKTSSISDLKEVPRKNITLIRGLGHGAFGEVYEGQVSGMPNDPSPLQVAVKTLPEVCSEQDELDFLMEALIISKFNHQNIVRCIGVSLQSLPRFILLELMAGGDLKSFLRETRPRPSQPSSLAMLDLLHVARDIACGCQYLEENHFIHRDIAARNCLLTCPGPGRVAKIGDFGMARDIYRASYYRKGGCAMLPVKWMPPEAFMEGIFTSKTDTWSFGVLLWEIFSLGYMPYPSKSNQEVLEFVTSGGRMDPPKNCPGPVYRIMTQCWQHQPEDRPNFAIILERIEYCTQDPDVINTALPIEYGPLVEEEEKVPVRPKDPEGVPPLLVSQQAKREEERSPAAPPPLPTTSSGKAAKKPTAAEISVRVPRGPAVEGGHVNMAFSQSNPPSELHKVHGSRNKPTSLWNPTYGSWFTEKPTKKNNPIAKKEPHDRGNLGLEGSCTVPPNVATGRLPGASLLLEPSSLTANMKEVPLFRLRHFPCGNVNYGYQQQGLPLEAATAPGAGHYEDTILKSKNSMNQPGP

In the case of `CN1CCN(c2ccc(C(=O)Nc3n[nH]c4ccc(Cc5cc(F)cc(F)c5)cc34)c(NC3CCOCC3)c2)CC1` [Entrectinib, N-[5-(3,5-difluorobenzyl)-1H-indazol-3-yl]-4-(4-methyl-piperazin-1-yl)-2-(tetrahydro-pyran-4-ylamino)-benzamide], the “antitumor effects in patients” value [1] is given as “antitumor effects”, the “inhibition of ALK tyrosine kinase” value [2] is given as “potent inhibitor” and the “Dyspnea, Grade ≥3” value ([3]; both) is given as 6* %. The “Fatal event: completed suicide” value ([3]; both) was 0.3%, the “Fatal event: dyspnea” value ([3]; both) was 0.6% and the “Fatal event: pneumonia” value ([3]; both) was 0.6%. The “Fatal event: sepsis” value ([3]; both) was 0.6%, the “Fatal event: tumor lysis syndrome” value ([3]; both) was 0.3% and the “Lung infection, Grade ≥3” value [3] was 6* %.
